Consider 4 compounds from US12215106B2, “Pharmaceutical compounds and therapeutic methods” (RUTGERS, THE STATE UNIVERSITY OF NEW JERSEY, priority 2018, dated 2025).

SMILES strings stand for the structures. Structures can show the parent of a compound that is named as a salt. A value given as a limit tells only on which side of the number the result lay.

One data set concerns GBM cells. As to the kind of experiment: Cell viability dose response in GBM cells (Vi-CELL, CellTiter-Glo). The conditions noted are these: compared with controls (DMSO and Temozolomide). In kind it is cell-based. The procedure: Small molecules were synthesized by the Molecular Design and Synthesis laboratory, Rutgers Translational Sciences at Rutgers University, NJ, USA. To compare the effects of Exemplary Compound 14 to Comparative Example 100, cells (3×10^5/well) were seeded into the 96-well tissue culture plates and treated with different BMI1 inhibitors (from 10 nM to 10 μM) in appropriate media. Dose response curves were generated upon exposing GBM cells to different concentrations of Exemplary compound 14, Comparative Example 101, and Comparative Example 100 (0.010-10 μM) for 72 hours. Cells were counted using Beckman Coulter Vi-CELL Cell Viability Analyzer, and cell viability was confirmed by CellTiter-Glo Luminescent Cell Viability Assay (Promega, Madison, WI, USA) according to standard protocols and analyzed with a Victor 2 plate reader (Wallac, Turku, Finland). We then assessed the selectivity and potency in GBM cells vs primary GBM. Dose-response curves were generated in both spheres and monocultures and used to determine a sphere selectivity ratio (targeting Glioblastoma Initiating Cells), defined as EC50(U87)/EC50(spheres), for each compound.

A further data set has as its system PD-L1. The data set can be described thus: Western blotting of PD-L1 levels in GBM spheres. In kind it is cell-based, human.
In the next data set the test system is Caco-2 cells. As to the kind of experiment: Bi-directional Caco-2 transport assay. In kind it is in vitro ADME. The conditions noted are these: for Papp (A-B) / Papp (B-A) / Efflux Ratio (B-A/A-B): human, Caco-2, 90 min, 5 μM; for Papp (A-B) / Papp (B-A): pH 7.4; for P-gp substrate: Caco-2. On the procedure: (§1) The objective of the study is to evaluate test compounds as substrates for efflux transporter using Caco-2 cell line. To assess the functionality of P-glycoprotein (P-gp), loperamide was run as a positive control (Apical and basolateral HBSS pH 7.4).
(§2) 5 mM DMSO stock of test compounds and loperamide was diluted 1000-folds in HBSS having 0.1% DMSO to prepare concentrations of 5 μM.
(§3) Caco-2 cells were grown in DMEM (20% FBS) until 85-90% confluence. After attaining required confluence, cells were trypsinized and seeded into 24 well millcell plates at a density of 0.6×10^5 cells/insert. The plates were maintained for 21 days at 37° C. in CO2 incubator with change of medium every alternative day. Monolayer integrity was monitored by measuring Trans-epithelial electrical resistance (TEER) from day 15.
(§4) Caco-2 cell monolayer was washed twice with HBSS and incubated for 40 min in CO2 incubator. TEER values were measured and wells showing TEER values above 230 ohms·cm^2 were taken for experiments. The study was performed in loperamide and test compounds by adding 400 μL of loperamide prepared in HBSS in apical (A-B transport) followed by addition of 800 μL of HBSS on basal side and for B-A transport 800 μL of loperamide prepared in HBSS was dosed in basal followed by addition of 400 μL HBSS on apical side. At selected time points (0, 15, 30, 60 and 90 mins) an aliquot of 50 μL was collected from the receiver compartment for determination of test compound concentrations. The volume withdrawn was replaced immediately with HBSS buffer. TEER was measured at the end to the experiment to confirm any damage of monolayer while performing experiment. Those wells with TEER not meeting the criteria were excluded from the study.
(§5) A 50 μL of test compound samples collected at respective time points and submitted for LC-MS/MS analysis.
(§6) The apparent permeability (Papp) (A−B & B−A) of test compounds and positive control was calculated using the following formula: Papp=dQ/dt/A·Co where, dQ/dt=linear slope of test compound concentration in receptor chamber with time (0, 15, 30, 60 and 90 min) after correcting for dilution; A=area of the filter (0.7 cm^2); and Co=initial concentration of compound in the donor compartment.
(§7) Efflux ratio (RE) was calculated using the following equation: RE=PB/A/PA/B where PB/A and PA/B represent the apparent permeability of test compound from the basal to apical and apical to basal side of cell monolayer.
(§8) Recovery represents: (amount of the compound recovered from donor at end of incubation+cumulative amount of compound in acceptor at end of incubation+amount of the compound in cell lysate or assay well)/amount of compound in donor solution at time zero*100
(§9) Compounds are classified based on Papp values as follows:
(§10) A compound having efflux ratio of >2 is considered as having potential as a P-gp substrate.

The next data set in a line: in vitro. The data set is classed as in vitro ADME, mice. The conditions noted are these: mouse; for recovery at 4 h, 5 µM: pH 7.4; for fraction unbound at 4 h, 5 μM: plasma. The procedure:
(§11) The objective of this study was to evaluate protein binding test compounds in mice plasma. This was accomplished by spiking the test compounds at a concentration of 5 μM into mice plasma and dialyzing against buffer until equilibrium is achieved (4 hours). Analyte area ratios of the test compounds in plasma and buffer were determined to calculate unbound and bound percentages of compound to the plasma proteins.
(§12) Phosphate buffered saline pack (0.1 M sodium phosphate and 0.15 M sodium chloride, pH 7.2) was dissolved in 500 mL of deionized water and pH was adjusted to 7.4 with 0.5 N NaOH.
(§13) 1 mM stock solutions were prepared in DMSO and diluted 200-folds in mice plasma to prepare a concentration of 5 μM. The final DMSO concentration in plasma was 0.5%.
(§14) Rapid equilibrium dialysis was performed with a rapid equilibrium dialysis (RED) device containing dialysis membrane with a molecular weight cut-off of 8,000 Daltons. Each dialysis insert contains two chambers. The red chamber is for plasma while the white chamber is for buffer.
(§15) A 200 μL aliquot of warfarin and test compound at 5 (triplicates) were separately added to the plasma chamber and 350 μL of phosphate buffer saline (pH 7.4) was added to the buffer chamber of the inserts. After sealing the RED device with an adhesive film, dialysis was performed in incubator at 37° C. with shaking at 100 RPM for 4 hours.
(§16) A 50 μL aliquot of warfarin and test compounds were added to four 0.5 mL microfuse tubes. Two aliquots were frozen immediately (0 minute sample). The other two aliquots were incubated at 37° C. for 4 hours along with the RED device.
(§17) Following dialysis, an aliquot of 50 μL was removed from each well (both plasma and buffer side) and diluted with equal volume of opposite matrix (dialyzed with the other matrix) to nullify the matrix effect. Similarly, 50 μL of buffer was added to recovery and stability samples. An aliquot of 100 μL was submitted for LCMS/MS analysis.
(§18) A 25 μL aliquot of warfarin and test compounds were crashed with 100 μL of acetonitrile containing internal standard (glipizide) and vortexed for 5 minutes. The samples were centrifuged at 4000 RPM at 4° C. for 10 min and 100 μL of supernatant was submitted for LC-MS/MS analysis. Samples were monitored for parent compound in MRM mode using LC-MS/MS.
(§19) The peak area ratios (analyte versus internal standard) obtained were used to determine the fraction of compound bound to plasma proteins.

The subject of the next data set is mice plasma. As to the kind of experiment: in vitro. In kind it is in vitro ADME. Conditions: mouse, plasma, 4 h, 5 μM. On the procedure: as §11, §12, §13, §14, §15, §16, §17, §18, §19
Data set [1] in a line: Toxicity in preclinical mouse models. In kind it is in vivo.
Data set [2] can be described thus: Bi-directional Caco-2 transport assay. In kind it is in vitro ADME. Conditions: human; for Papp at 90 min, 5 μM: Caco-2; for Papp A→B at 90 min, 5 μM / Papp B→A at 90 min, 5 μM: Caco-2, pH 7.4. On the procedure: as §1, §2, §3, §4, §5, §6, §7, §8, §9, §10
Another data set deals with P-gp. The data set can be described thus: Bi-directional Caco-2 transport assay. In kind it is in vitro ADME. The conditions noted are these: human, Caco-2, Efflux Ratio (B-A/A-B). On the procedure: as §1, §2, §3, §4, §5, §6, §7, §8, §9, §10

Turning to `COc1c(F)cc(Nc2nc(-c3c(C)nc4ccccn34)cs2)cc1F` [Compound 14, hydrochloride], the “sphere selectivity ratio EC50(U87)/EC50(spheres)” value with GBM cells is “high selectivity for glioblastoma cancer stem cells”. Moreover, the “PD-L1 levels, time-course” value in the data set with PD-L1 (7-10 nM, time-course of 120 hours) is listed as “modulate of the levels of PD-L1”. In the data set on Caco-2 cells, the “Papp (A-B)” value is 0.0 ± 0.0 10^−6 cm/sec. For the same compound, the “Papp (B-A)” value with Caco-2 cells was 0.0 ± 0.0 10^−6 cm/sec. Also, the recovery at 4 h, 5 µM in the data set “in vitro” amounted to 124%. For the same compound, the fraction unbound at 4 h, 5 μM in “in vitro” (pH 7.4, % Bound Mean ± SD) was 0.003; in “in vitro” (pH 7.4, % Bound R1), 0.002; in “in vitro” (pH 7.4, % Bound R2), 0.003; in “in vitro” (pH 7.4, % Bound R3), 0.002; in the data set “in vitro” (pH 7.4, PPB at 4 h), 0.24. Further, in the data set on mice plasma, the “% compound remaining at 4 hrs” value is given as 76%. Moreover, the toxicity in vivo entry in data set [1] was “appear not to have toxicity in vivo”.
`[2H]C([2H])([2H])Oc1ccc(Nc2nc(-c3c(C)nc4ccccn34)cs2)cc1` [Compound 15, N-(4-(methoxy-d3)phenyl)-4-(2-methylimidazo[1,2-c]pyridin-3-yl)thiazol-2-amine hydrochloride]: the “Papp (A-B)” value in the data set with Caco-2 cells is 0.0 ± 0.0 10^−6 cm/sec. In the data set on Caco-2 cells, the “Papp (B-A)” value is recorded as 0.0 ± 0.0 10^−6 cm/sec. In the data set “in vitro” (Plasma), the recovery at 4 h, 5 µM is 114%. In addition, the fraction unbound at 4 h, 5 μM in “in vitro” (pH 7.4, % Bound Mean ± SD) was 0.001; in “in vitro” (pH 7.4, % Bound R1), 0.001; in “in vitro” (pH 7.4, % Bound R2), 0.001; in “in vitro” (pH 7.4, % Bound R3), 0.001; in “in vitro” (pH 7.4, PPB at 4 h) it was 0.1. Moreover, the “% compound remaining at 4 hrs” value in the data set with mice plasma is 90%.
On to `Cc1nc2ccccn2c1-c1csc(Nc2ccc3c(c2)OC(F)(F)O3)n1` [Compound 16, N-(2,2-difluorobenzo[d][1,3]dioxol-5-yl)-4-(2-methylimidazo[1,2-a]pyridin-3-yl)thiazol-2-amine hydrochloride], for which the Papp at 90 min, 5 μM in data set [2] fell in the range of 3 to 15 ×10⁻⁶ cm/s. Also, the Papp A→B at 90 min, 5 μM in data set [2] worked out at 14 ± 3.3 ×10⁻⁶ cm/s. The same compound came in with a Papp B→A at 90 min, 5 μM in data set [2] of 12.1 ± 0.1 ×10⁻⁶ cm/s. Moreover, in the data set with Caco-2 cells, the P-gp substrate result is on record as “not P-gp substrate”. In addition, the “Efflux Ratio (B-A/A-B)” value with Caco-2 cells was determined as 0.9. In addition, the recovery at 4 h, 5 µM in “in vitro” (Plasma) is 117%. Moreover, the fraction unbound at 4 h, 5 μM was 0.01 in “in vitro” (pH 7.4, % Bound Mean ± SD); 0.01 in the data set “in vitro” (pH 7.4, % Bound R1); 0.01 in “in vitro” (pH 7.4, % Bound R2); 0.011 in the data set “in vitro” (pH 7.4, % Bound R3); 0.24 in the data set “in vitro” (pH 7.4, PPB at 4 h). Moreover, in the data set on mice plasma, the “% compound remaining at 4 hrs” value is recorded as 76%.
For `[2H]C1([2H])Oc2ccc(Nc3nc(-c4c(C)nc5ccccn45)cs3)cc2O1` [Compound 17, N-(benzo[d][1,3]dioxol-5-yl-2,2-d2)-4-(2-methylimidazo[1,2-c]pyridin-3-yl)thiazol-2-amine hydrochloride], the PDL1 levels entry with PD-L1 (GBM spheres, Western blotting) is “increased PDL1”. The compound further displayed a Papp at 90 min, 5 μM in data set [2] of 3 to 15 ×10⁻⁶ cm/s. This compound also had a Papp A→B at 90 min, 5 μM in data set [2] of 4.9 ± 0.8 ×10⁻⁶ cm/s. In addition, in data set [2], the Papp B→A at 90 min, 5 μM was determined as 6.4 ± 0.6 ×10⁻⁶ cm/s. Moreover, in the data set with Caco-2 cells, the P-gp substrate entry is on record as “not P-gp substrate”. The “Efflux Ratio (B-A/A-B)” value in the data set with Caco-2 cells is given as 1.3. The efflux ratio at 90 min, 5 μM in the data set with P-gp was less than 2. In “in vitro”, the recovery at 4 h, 5 µM is 124%. In addition, the fraction unbound at 4 h, 5 μM in the data set “in vitro” (pH 7.4, % Bound Mean ± SD) is 0.006; in the data set “in vitro” (pH 7.4, % Bound R1), 0.008; in the data set “in vitro” (pH 7.4, % Bound R2), 0.004; in “in vitro” (pH 7.4, % Bound R3), 0.005; in the data set “in vitro” (pH 7.4, PPB at 4 h) it was 0.25. In addition, the “% compound remaining at 4 hrs” value with mice plasma turned out to be 75%.
